For 5 compounds, EC50 results are on record in US12679878B2, “CRF2 receptor agonists and their use in therapy” (SANOFI, priority 2020, dated 2026).

The target of one experiment is T1, human CRF2α receptor (Homo sapiens, UniProt Q13324).
T1 construct: expressed in transfected cells; host or cells: TeloHEAC
T1 sequence (Q13324 1-411): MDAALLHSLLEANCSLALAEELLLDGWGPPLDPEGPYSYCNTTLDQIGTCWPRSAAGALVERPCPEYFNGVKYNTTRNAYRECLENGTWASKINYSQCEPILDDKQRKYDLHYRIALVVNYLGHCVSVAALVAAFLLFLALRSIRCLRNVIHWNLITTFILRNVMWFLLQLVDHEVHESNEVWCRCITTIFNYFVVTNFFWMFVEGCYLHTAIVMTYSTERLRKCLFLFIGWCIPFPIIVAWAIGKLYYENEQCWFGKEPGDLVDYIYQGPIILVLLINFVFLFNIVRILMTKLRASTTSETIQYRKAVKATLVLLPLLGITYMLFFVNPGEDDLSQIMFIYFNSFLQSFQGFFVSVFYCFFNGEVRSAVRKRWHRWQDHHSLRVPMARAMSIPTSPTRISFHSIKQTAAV
Nature of the experiment: cAMP agonism at human CRF2 α receptor in TeloHEAC cells (Example 7). The class given is cell-based. To be noted: cAMP HTRF, TeloHEAC cells stably expressing human CRF2 α. The essentials: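 Cryopreserved cells are thawed, washed and resuspended in IBMX-containing (2 mM) HEPES-buffered HBSS with or without 0.1% HSA. Compound incubation runs 30 min at room temperature with 2000 cells per well, then cAMP is measured by time-resolved FRET. Potency is expressed as EC50, efficacy relative to urocortin 2 at 1000 nM.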
(In general: TR-FRET usually uses a lanthanide donor and a delayed reading to cut background.)

A further experiment has as its system rat CRF2R α receptor. Nature of the experiment: cAMP agonism at rat CRF2R α receptor in A7R5 rat aortic smooth muscle cells (Example 8). Format: cell-based. The conditions noted are these: cAMP HTRF, A7R5 rat aortic smooth muscle cell line, 0% HSA. The procedure:
Cells were grown in a T175 culture flask placed at 37° C. to near confluence in medium (DMEM/10% FBS) and collected in 2 ml vials in cell culture medium containing 10% DMSO in a concentration of 10-50 million cells/ml. Each vial contained 1.8 ml cells. The vials were slowly frozen to −80° C. in isopropanol and then transferred in liquid nitrogen for storage. Prior to use, frozen cells were thawed quickly at 37° C. and washed (5 min at 900 rpm) with 20 ml cell buffer (1×HBSS; 20 mM HEPES; 0% or 0.1% HSA). Cells were resuspended in assay buffer (cell buffer plus 2 mM IBMX) and adjusted to a cell density of 1 million cells/ml. For measurement, 5 μl cells (final […]) and 5 μL of test compound were added to a 384-well plate, followed by incubation for 30 minutes at room temperature.
The CAMP content of cells was determined using a kit from Cisbio Corp. (cat. no. 62AM4PEC) based on HTRF (Homogenous Time Resolved Fluorescence). After addition of HTRF reagents diluted in lysis buffer (kit components), the plates were incubated for 1 h, followed by measurement of the fluorescence ratio at 665/620 nm. The percent activity value (E %) was calculated by setting 1000 nM of urocortin 2 (UCN2) as 100%. The in vitro potency of the compounds was quantified by determining the concentrations that caused 50% activation of maximal response (EC50).
Using the procedure described in Example 7, the activity of the compounds at the rat CRF2R α receptor was assessed. The A7R5 rat aortic smooth muscle cell line was used in this study.

Setting [1] is: 0% HSA, read-out: EC50 [nM], 0% HSA.
The mark [2] stands for this setting: 0.1% HSA, read-out: EC50 [nM], 0.1% HSA.

Molecules are shown by their SMILES. Where two headings read alike, the source gives them in different places. Starred links: 1 amine or outer side, 2 acyl side, 3 side chain; linkers in the order of their positions; H or OH if unused. Non-standard residues stand in square brackets, D forms with d. Residues, ends and D or L forms follow the SMILES beside them. Groups on a side chain read outwards from the residue. *: point of attachment. C20 diacid = O=C(O)CCCCCCCCCCCCCCCCCCC(=O)*; C18 diacid = O=C(O)CCCCCCCCCCCCCCCCC(=O)*; γGlu = O=C(O)[C@H](CCC(=O)[*:2])N[*:1]; AEEA = NCCOCCOCC(=O)O; Aib = CC(C)(N)C(=O)O

Consider `CC[C@H](C)[C@H](NC(C)=O)C(=O)N[C@H](C(=O)N[C@@H](CC(C)C)C(=O)N[C@@H](CO)C(=O)N[C@@H](CC(C)C)C(=O)N[C@@H](CC(=O)O)C(=O)N[C@@H](C(=O)N1CCC[C@H]1C(=O)N[C@H](C(=O)N[C@@H](CCCCN)C(=O)N[C@@H](CC(C)C)C(=O)N[C@@H](CCCCNC(=O)COCCOCCNC(=O)COCCOCCNC(=O)CC[C@H](NC(=O)CCCCCCCCCCCCCCCCC(=O)O)C(=O)O)C(=O)N[C@@H](CCC(N)=O)C(=O)N[C@H](C(=O)N[C@@H](CC(C)C)C(=O)N[C@@H](CC(C)C)C(=O)N[C@@H](CCC(=O)O)C(=O)N[C@@H](CCC(N)=O)C(=O)N[C@@H](CCC(=O)O)C(=O)N[C@@H](CCCNC(=N)N)C(=O)N[C@@H](CCC(N)=O)C(=O)N[C@@H](CCC(=O)O)C(=O)NC(C)(C)C(=O)N[C@@H](CCC(N)=O)C(=O)N[C@@H](CCCNC(=N)N)C(=O)N[C@@H](CCC(=O)O)C(=O)N[C@@H](CCC(N)=O)C(=O)N[C@@H](C)C(=O)N[C@@H](CCC(=O)O)C(=O)N[C@@H](CCCCN)C(=O)N[C@@H](CC(N)=O)C(=O)N[C@@H](CCCCN)C(=O)N[C@@H](CCC(N)=O)C(=O)N[C@H](C(=O)N[C@@H](CC(C)C)C(=O)N[C@@H](CCC(=O)O)C(=O)N[C@@H](CCC(N)=O)C(=O)N[C@H](C(N)=O)C(C)C)[C@@H](C)CC)[C@@H](C)CC)[C@@H](C)CC)C(C)C)C(C)C` [compound 159] (Ac-IVLSLD[dV]PIKLK([AEEA-AEEA-γGlu-C18 diacid])QILLEQERQE[Aib]QREQAEKNKQILEQV-NH2), for which the EC50 was determined as 1.27 nM at human CRF2α receptor (setting [1]), 27.4 nM on human CRF2α receptor (setting [2]) and 15.6 nM in the experiment with rat CRF2R α receptor.

For `CC[C@H](C)[C@H](N)C(=O)N[C@H](C(=O)N[C@@H](CC(C)C)C(=O)N[C@@H](CO)C(=O)N[C@@H](CC(C)C)C(=O)N[C@@H](CC(=O)O)C(=O)N[C@@H](C(=O)N1CCC[C@H]1C(=O)N[C@H](C(=O)N[C@@H](CCCCN)C(=O)N[C@@H](CC(C)C)C(=O)N[C@@H](CCCCNC(=O)COCCOCCNC(=O)COCCOCCNC(=O)CC[C@H](NC(=O)CCCCCCCCCCCCCCCCCCC(=O)O)C(=O)O)C(=O)N[C@@H](CCC(N)=O)C(=O)N[C@H](C(=O)N[C@@H](CC(C)C)C(=O)N[C@@H](CC(C)C)C(=O)N[C@@H](CCCCN)C(=O)N[C@@H](CCC(N)=O)C(=O)N[C@@H](CCC(=O)O)C(=O)N[C@@H](CCCNC(=N)N)C(=O)N[C@@H](CCC(N)=O)C(=O)N[C@@H](CCCCN)C(=O)NC(C)(C)C(=O)N[C@@H](CCC(N)=O)C(=O)N[C@@H](CCCNC(=N)N)C(=O)N[C@@H](CCC(=O)O)C(=O)N[C@@H](CCC(N)=O)C(=O)N[C@@H](C)C(=O)N[C@@H](CCC(=O)O)C(=O)N[C@@H](CCCCN)C(=O)N[C@@H](CC(N)=O)C(=O)N[C@@H](CCCCN)C(=O)N[C@@H](CCC(N)=O)C(=O)N[C@H](C(=O)N[C@@H](CC(C)C)C(=O)N[C@@H](C)C(=O)N[C@@H](CCC(N)=O)C(=O)N[C@H](C(N)=O)C(C)C)[C@@H](C)CC)[C@@H](C)CC)[C@@H](C)CC)C(C)C)C(C)C` [compound 173] (H-IVLSLD[dV]PIKLK([AEEA-AEEA-γGlu-C20 diacid])QILLKQERQK[Aib]QREQAEKNKQILAQV-NH2; N-terminus assumed), the 50% effective concentration (EC50) at human CRF2α receptor (setting [1]) amounted to 0.03 nM; on human CRF2α receptor (setting [2]), 3.49 nM; in the experiment on rat CRF2R α receptor it was 0.83 nM.

For the compound `CC[C@H](C)[C@H](N)C(=O)N[C@H](C(=O)N[C@@H](CC(C)C)C(=O)N[C@@H](CO)C(=O)N[C@@H](CC(C)C)C(=O)N[C@@H](CC(=O)O)C(=O)N[C@@H](C(=O)N1CCC[C@H]1C(=O)N[C@H](C(=O)N[C@@H](CCCCN)C(=O)N[C@@H](CC(C)C)C(=O)N[C@@H](CCCCNC(=O)COCCOCCNC(=O)COCCOCCNC(=O)CC[C@H](NC(=O)CC[C@H](NC(=O)CCCCCCCCCCCCCCCCC(=O)O)C(=O)O)C(=O)O)C(=O)N[C@@H](CCC(N)=O)C(=O)N[C@H](C(=O)N[C@@H](CC(C)C)C(=O)N[C@@H](CC(C)C)C(=O)N[C@@H](CCCCN)C(=O)N[C@@H](CCC(N)=O)C(=O)N[C@@H](C)C(=O)N[C@@H](CCCNC(=N)N)C(=O)N[C@@H](CCC(N)=O)C(=O)N[C@@H](CCCCN)C(=O)NC(C)(C)C(=O)N[C@@H](CCC(N)=O)C(=O)N[C@@H](CCCNC(=N)N)C(=O)N[C@@H](C)C(=O)N[C@@H](CCC(N)=O)C(=O)N[C@@H](C)C(=O)N[C@@H](CCC(=O)O)C(=O)N[C@@H](CCCCN)C(=O)N[C@@H](CC(N)=O)C(=O)N[C@@H](CCCCN)C(=O)N[C@@H](CCCNC(=N)N)C(=O)N[C@H](C(=O)N[C@@H](CC(C)C)C(=O)N[C@@H](CCC(=O)O)C(=O)N[C@@H](CCCNC(=N)N)C(=O)N[C@H](C(N)=O)C(C)C)[C@@H](C)CC)[C@@H](C)CC)[C@@H](C)CC)C(C)C)C(C)C` [compound 174] (H-IVLSLD[dV]PIKLK([AEEA-AEEA-γGlu-γGlu-C18 diacid])QILLKQARQK[Aib]QRAQAEKNKRILERV-NH2; N-terminus assumed), the EC50 at human CRF2α receptor (setting [1]) turned out to be 0.07 nM; on human CRF2α receptor (setting [2]), 0.88 nM; in the experiment with rat CRF2R α receptor it was 0.42 nM.

Turning to `CC[C@H](C)[C@H](N)C(=O)N[C@H](C(=O)N[C@@H](CC(C)C)C(=O)N[C@@H](CO)C(=O)N[C@@H](CC(C)C)C(=O)N[C@@H](CC(=O)O)C(=O)N[C@@H](C(=O)N1CCC[C@H]1C(=O)N[C@H](C(=O)N[C@@H](CCCCN)C(=O)N[C@@H](CC(C)C)C(=O)N[C@@H](CCCCNC(=O)CCCCCCCCCCCCCCCCC(=O)O)C(=O)N[C@@H](CCC(N)=O)C(=O)N[C@H](C(=O)N[C@@H](CC(C)C)C(=O)N[C@@H](CC(C)C)C(=O)N[C@@H](CCCCN)C(=O)N[C@@H](CCC(N)=O)C(=O)N[C@@H](CCC(=O)O)C(=O)N[C@@H](CCCNC(=N)N)C(=O)N[C@@H](CCC(N)=O)C(=O)N[C@@H](CCCCN)C(=O)NC(C)(C)C(=O)N[C@@H](CCC(N)=O)C(=O)N[C@@H](CCCNC(=N)N)C(=O)N[C@@H](CCC(=O)O)C(=O)N[C@@H](CCC(N)=O)C(=O)N[C@@H](C)C(=O)N[C@@H](CCC(=O)O)C(=O)N[C@@H](CCCCN)C(=O)N[C@@H](CC(N)=O)C(=O)N[C@@H](CCCCN)C(=O)N[C@@H](CCC(N)=O)C(=O)N[C@H](C(=O)N[C@@H](CC(C)C)C(=O)N[C@@H](C)C(=O)N[C@@H](CCC(N)=O)C(=O)N[C@H](C(N)=O)C(C)C)[C@@H](C)CC)[C@@H](C)CC)[C@@H](C)CC)C(C)C)C(C)C` [compound 182] (H-IVLSLD[dV]PIKLK(C18 diacid)QILLKQERQK[Aib]QREQAEKNKQILAQV-NH2; N-terminus assumed), the EC50 on human CRF2α receptor (setting [1]) was 0.03 nM; on human CRF2α receptor (setting [2]), 3.13 nM; in the experiment on rat CRF2R α receptor it was 0.59 nM.

With `CC[C@H](C)[C@H](N)C(=O)N[C@H](C(=O)N[C@@H](CC(C)C)C(=O)N[C@@H](CO)C(=O)N[C@@H](CC(C)C)C(=O)N[C@@H](CC(=O)O)C(=O)N[C@@H](C(=O)N1CCC[C@H]1C(=O)N[C@H](C(=O)N[C@@H](CCCCN)C(=O)N[C@@H](CC(C)C)C(=O)N[C@@H](CCCCNC(=O)CCCCCCCCCCCCCCCCC(=O)O)C(=O)N[C@@H](CCC(N)=O)C(=O)N[C@H](C(=O)N[C@@H](CC(C)C)C(=O)N[C@@H](CC(C)C)C(=O)N[C@@H](CCCCN)C(=O)N[C@@H](CCC(N)=O)C(=O)N[C@@H](C)C(=O)N[C@@H](CCCNC(=N)N)C(=O)N[C@@H](CCC(N)=O)C(=O)N[C@@H](CCCCN)C(=O)NC(C)(C)C(=O)N[C@@H](CCC(N)=O)C(=O)N[C@@H](CCCNC(=N)N)C(=O)N[C@@H](C)C(=O)N[C@@H](CCC(N)=O)C(=O)N[C@@H](C)C(=O)N[C@@H](CCC(=O)O)C(=O)N[C@@H](CCCCN)C(=O)N[C@@H](CC(N)=O)C(=O)N[C@@H](CCCCN)C(=O)N[C@@H](CCCNC(=N)N)C(=O)N[C@H](C(=O)N[C@@H](CC(C)C)C(=O)N[C@@H](CCC(=O)O)C(=O)N[C@@H](CCCNC(=N)N)C(=O)N[C@H](C(N)=O)C(C)C)[C@@H](C)CC)[C@@H](C)CC)[C@@H](C)CC)C(C)C)C(C)C` [compound 183] (H-IVLSLD[dV]PIKLK(C18 diacid)QILLKQARQK[Aib]QRAQAEKNKRILERV-NH2; N-terminus assumed), the EC50 on human CRF2α receptor (setting [1]) is 0.12 nM; on human CRF2α receptor (setting [2]) it was 1.58 nM; in the experiment on rat CRF2R α receptor it was 1.12 nM.

For orientation: EC50 means the concentration giving half of the maximal effect.
